From US20260098045A1, “CRYSTALLINE FORM OF (3S,7S,10R,13R)-13-BENZYL-20-FLUORO-7-ISOBUTYL-N-(2-(3-METHOXY-1,2,4-OXADIAZOL-5-YL)ETHYL)-6,9-DIMETHYL-1,5,8,11-TETRAOXO-10-(2,2,2-TRIFLUOROETHYL)-1,2,3,4,5,6,7,8,9,10,11,12,13,14-TETRADECAHYDRO-[1]OXA[4,7,10,14]TETRAAZACYCLOHEPTADECINO[16,17-F]QUINOLINE-3-CARBOXAMIDE” (Idorsia Pharmaceuticals Ltd, priority 2022, published 2026)

Test: Gravimetric vapour sorption (GVS) analysis
Assay type: physicochemical
Settings: sample of Example 6
Method: Measurements are performed on a multi-sample instrument SPS-100n (Projekt Messtechnik, Ulm, Germany), which is operated in stepping mode at 25° C. A sample of approximately 20 mg is equilibrated at 40% RH before starting a pre-defined humidity program of 40-0-95-0-95-40% RH with steps of 5% ARH and a maximum equilibration time of 24 h per step. The hygroscopic classification is done according to the European Pharmacopeia Technical Guide (1999, page 86), e.g., non-hygroscopic: increase in mass less than 0.2% mass/mass; slightly hygroscopic: increase in mass is less than 2% and equal to or greater than 0.2% mass/mass; hygroscopic: increase in mass is less than 15% and equal to or greater than 2% mass/mass. The mass change between 40% relative humidity and 80% relative humidity in the first adsorption scan is evaluated for this classification.

GVS change of the water content (between 0% and 95% RH, 25° C., almost linear, small hysteresis between ca. 50% and 85% RH): 2% | GVS maximum water content (corresponds to approximately 1 equivalent of water): 2%
Compound: COc1noc(CCNC(=O)[C@@H]2CC(=O)N(C)[C@@H](CC(C)C)C(=O)N(C)[C@H](CC(F)(F)F)C(=O)N[C@H](Cc3ccccc3)COc3ccc4ncc(F)cc4c3C(=O)N2)n1 [form 1 of the COMPOUND, (3S,7S,10R,13R)-13-benzyl-20-fluoro-7-isobutyl-N-(2-(3-methoxy-1,2,4-oxadiazol-5-yl)ethyl)-6,9-dimethyl-1,5,8,11-tetraoxo-10-(2,2,2-trifluoroethyl)-1,2,3,4,5,6,7,8,9,10,11,12,13,14-tetradecahydro-[1]oxa[4,7,10,14]tetraazacycloheptadecino[16,17-f]quinoline-3-carboxamide]
